Measured values published in patent US20070219268A1, “Anti-cancer activity augmentation compounds and formulations and methods of use thereof” (BioNumerik Pharmaceuticals, Inc., priority 2006, published 2007).
Entries after “also recorded” stand apart in the source; their conditions may differ.

Experiments:
[1] = target: T1, glutathione-S-transferase (GST), m1-1 isotype (Homo sapiens, UniProt P09488); assay: GST assay: conjugation of reduced glutathione to CDNB, absorbance at 340 nm; assay type: biochemical; conditions: difference of relative activity from 100%
T1 construct: purchased
T1 sequence (P09488 1-218): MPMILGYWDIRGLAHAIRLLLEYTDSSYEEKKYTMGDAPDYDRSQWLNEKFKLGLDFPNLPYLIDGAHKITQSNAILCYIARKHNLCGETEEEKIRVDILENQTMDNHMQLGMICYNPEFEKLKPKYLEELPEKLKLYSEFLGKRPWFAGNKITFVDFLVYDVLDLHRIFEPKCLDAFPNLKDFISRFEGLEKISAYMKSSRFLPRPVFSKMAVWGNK
From the text: The following experiments were designed to determine if Tavocept™ has an inhibitory or stimulatory effect on GST. […] An in vitro assay for GST has been developed and reported. See, Meyer, D. J. and Ketterer, B., Purification of soluble human glutathione S-transferases. Methods Enzymol. 252:53-65 (1995). This assay monitors the conjugation of reduced glutathione to 1-chloro-2,4-dinitrobenzene (CDNB), as illustrated in Reaction Scheme II, below.
Reduced thiol forms a conjugate with CDNB (extinction coefficient=9600 M^−1 cm^−1), which is detected at 340 nm. Stock solutions of GSH, CDNB, Tavocept™ were prepared by dissolving the reagent in sterile water at the concentrations listed below prior to use. […] Slopes were measured in the linear range of the assay (i.e., typically between 5 to 10 min.). In assays where the effect of Tavocept™ on GST activity was measured, 20 μL of either a 500 mM, 166.7 mM, or 55.6 mM stock solution of Tavocept™ was added to standard reactions using 1 mM GSH as the enzyme substrate. […]
Raw data was obtained on a Cary 100 spectrophotometer. […] No absorbance values were collected during the process of enzyme addition. […] It was during this time that reaction rates (i.e., slopes of change in absorbance with time) were measured using the Cary 100 software. […]

[2] = target: T2, thioredoxin (TRX) (Homo sapiens, UniProt P10599); assay: NADPH oxidation at 340 nm by TRR in the presence of TRX; assay type: biochemical
T2 sequence (P10599 1-105): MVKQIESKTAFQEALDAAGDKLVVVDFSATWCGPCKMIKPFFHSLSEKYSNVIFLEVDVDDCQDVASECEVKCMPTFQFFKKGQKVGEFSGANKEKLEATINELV
Protocol: (§1) The activity of TRR and TRX was determined by following NADPH oxidation at 340 nm according to the previously reported method. See, Luthman, M., and Holmgren, A. Rat liver thioredoxin and thioredoxin reductase: purification and characterization. Biochemistry 21:6628-6633 (1982). A typical assay mixture contained TR buffer (50 mM potassium phosphate, pH 7.0, 1 mM EDTA), 200 μM NADPH, 1.6 μg bovine TRR, and one or more of the following: 4.8 μM TRX, 86 μM insulin, and one of the disulfides described herein. All disulfides were added to reactions as 10× solutions in TR buffer. The total volume of each reaction was 0.1 mL. Reactions were initiated by the addition of TRR and were incubated at 25° C. for 40 min. The activity was calculated using a 4 min. linear portion of each reaction. Enzyme assays were carried out using either a Molecular Devices SpectraMaxPlus UV plate reader or a Varian Cary 100 UV-visible Spectrophotometer.
(§2) Data was then collected and plotted in Microsoft Excel. Error calculations, and graphical representations were performed in Microsoft Excel and Kaleidograph (ver. 3.5). Nonlinear data was graphically rendered using Kaleidograph. ANOVA and other statistical analyses were performed using SAS (ver. 8.2). Unless otherwise noted, significance level was set at 0.05, and error bars represent actual experimental standard deviation.

[3] = target: T3, thioredoxin reductase (TRR) (Bos taurus, UniProt O62768); assay: NADPH oxidation at 340 nm by TRR in the absence of TRX; assay type: biochemical, bovine
T3 sequence (O62768 1-499): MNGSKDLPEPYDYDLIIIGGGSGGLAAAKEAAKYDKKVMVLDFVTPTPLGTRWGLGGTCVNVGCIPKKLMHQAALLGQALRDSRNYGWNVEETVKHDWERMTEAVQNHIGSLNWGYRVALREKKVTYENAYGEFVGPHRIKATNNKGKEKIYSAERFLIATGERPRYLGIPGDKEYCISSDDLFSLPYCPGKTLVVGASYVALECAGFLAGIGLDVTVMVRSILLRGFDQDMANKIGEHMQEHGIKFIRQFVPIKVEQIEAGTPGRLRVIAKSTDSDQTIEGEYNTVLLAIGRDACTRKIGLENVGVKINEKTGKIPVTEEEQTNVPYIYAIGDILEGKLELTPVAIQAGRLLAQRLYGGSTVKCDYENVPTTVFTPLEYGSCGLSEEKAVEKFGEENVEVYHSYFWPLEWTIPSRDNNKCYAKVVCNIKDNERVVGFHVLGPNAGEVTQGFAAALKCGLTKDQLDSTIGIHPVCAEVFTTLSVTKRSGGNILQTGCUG
Protocol: as §1, §2

[4] = target: T4, glutaredoxin (Homo sapiens, UniProt P35754); assay: Glutaredoxin assay in the presence of reduced glutathione and glutathione reductase; assay type: biochemical
T4 sequence (P35754 1-106): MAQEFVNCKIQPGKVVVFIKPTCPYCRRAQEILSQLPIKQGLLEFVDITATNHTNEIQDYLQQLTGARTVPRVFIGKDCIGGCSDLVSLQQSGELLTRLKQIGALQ
From the text: In addition to the absence of interference with anti-cancer activity, results from in vivo studies have shown that Tavocept™ may elicit the restoration of apoptotic sensitivity in tumor cells through thioredoxin- and glutaredoxin-mediated mechanisms and this may be an important element of its effectiveness as a chemotherapeutic agent.

[5] = based on magnitude and concentration-dependence of oxidation responses

SMILES: O=S(=O)([O-])CCSSCCS(=O)(=O)[O-].[Na+].[Na+] [Tavocept™, disodium 2,2′-dithio-bis-ethane sulfonate]
- Percent Inhibition ([1]; 1.1 mM Tavocept): 5.6%
- Percent Inhibition ([1]; 3.3 mM Tavocept): 39%
- NADPH oxidation by TRR in the presence of TRX ([2]; 4.8 μM TRX, 200 μM NADPH, 25° C.): concentration-dependent increase
- substrate for TRX [2, 5]: most likely a substrate for TRX; also recorded: substrate for thioredoxin
- substrate for TRR [3, 5]: not for TRR
- NADPH oxidation by TRR in the absence of TRX ([3]; no TRX, 200 μM NADPH, 25° C.): indistinguishable from background
- activity with glutaredoxin [4]: substrate-like activity
